The test concerns the target BCL2 (Homo sapiens (Human), UniProt P10415). The test is described as follows: Molecular level activity test of anti-apoptotic protein BCL2 (HTRF, binding to Bim peptide). The following applies: HTRF, binding of BCL2 to Bim peptide; read-out: BCL2 nM (inhibitory activity, IC50). In short, it runs like this: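 HTRF readout; His-BCL2 + biotin-BIM peptide + cpd (2% DMSO in compound addition), 1 h; then anti-His + SA-XL665 detection reagents, 4 h RT.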
Sequence of BCL2 (P10415 whole entry): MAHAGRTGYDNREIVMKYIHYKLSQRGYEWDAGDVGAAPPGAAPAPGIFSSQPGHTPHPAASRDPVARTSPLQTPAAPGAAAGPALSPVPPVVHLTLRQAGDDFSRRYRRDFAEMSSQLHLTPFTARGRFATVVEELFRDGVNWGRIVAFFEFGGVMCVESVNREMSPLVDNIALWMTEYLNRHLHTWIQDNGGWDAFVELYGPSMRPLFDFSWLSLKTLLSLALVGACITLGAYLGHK
By IC50 is commonly meant the concentration that inhibits the measured activity by half. For `CC(C)c1ccccc1[C@@H]1CCCN1C1CC2(CCN(c3cc(Oc4cnc5[nH]ccc5c4)c(C(=O)NS(=O)(=O)c4cc([N+](=O)[O-])c(NCC5CCOCC5)c5c4OCO5)cc3F)CC2)C1` [compound 156, (S)-2-((1H-pyrrolo[2,3-b]pyrid-5-yl)oxy)-5-fluoro-4-(2-(2-(2-isopropylphenyl)pyrrolidin-1-yl)-7-azaspiro[3.5]non-7-yl)-N-((6-nitro-7-(((tetrahydro-2H-pyran-4-yl)methyl)amino)benzo[d][1,3]dioxocyclopent-4-yl)sulfonyl)benzamide], the IC50 was < 10 nM.

As to `CC(C)c1ccccc1[C@@H]1CCCN1C1CC2(CCN(c3cc(Oc4cnc5[nH]ccc5c4)c(C(=O)NS(=O)(=O)c4cc([N+](=O)[O-])c(NC[C@H]5COCCO5)c5c4OCO5)cc3F)CC2)C1` [compound 157, N-((7-((((S)-1,4-dioxan-2-yl)methyl)amino)-6-nitrobenzo[d][1,3]dioxocyclopent-4-yl)sulfonyl)-2-((1H-pyrrolo[2,3-b]pyrid-5-yl)oxy)-5-fluoro-4-(2-((S)-2-(2-isopropylphenyl)pyrrolidin-1-yl)-7-azaspiro[3.5]non-7-yl)benzamide], the half-maximal inhibitory concentration (IC50) was < 10 nM.

For `CC(C)c1ccccc1[C@@H]1CCCN1C1CC2(CCN(c3ccc(C(=O)NS(=O)(=O)c4cc([N+](=O)[O-])c(NC[C@H]5CC[C@](C)(O)CC5)c5c4OCO5)c(Oc4cnc5[nH]ccc5c4)c3)CC2)C1` [compound 158, 2-((1H-pyrrolo[2,3-b]pyrid-5-yl)oxy)-N-((7-((((1r, 4r)-4-hydroxy-4-methylcyclohexyl)methyl)amino)-6-nitrobenzo[d][1,3]dioxocyclopent-4-yl)sulfonyl)-4-(2-((S)-2-(2-isopropylphenyl)pyrrolidin-1-yl)-7-azaspiro[3.5]non-7-yl)benzamide], the IC50 is < 10 nM.

For `CC(C)c1ccccc1[C@@H]1CCCN1C1CC2(CCN(c3ccc(C(=O)NS(=O)(=O)c4cc([N+](=O)[O-])c(NCC5(F)CCOCC5)c5c4OCO5)c(Oc4cnc5[nH]ccc5c4)c3)CC2)C1` [compound 159, (S)-2-((1H-pyrrolo[2,3-b]pyrid-5-yl)oxy)-N-((7-(((4-fluorotetrahydro-2H-pyran-4-yl)methyl)amino)-6-nitrobenzo[d][1,3]dioxocyclopent-4-yl)sulfonyl)-4-(2-(2-(2-isopropylphenyl)pyrrolidin-1-yl)-7-azaspiro[3.5]non-7-yl)benzamide], the IC50 was < 10 nM.

For `CC(C)c1ccccc1[C@@H]1CCCN1C1CC2(CCN(c3ccc(C(=O)NS(=O)(=O)c4cc([N+](=O)[O-])c(NCC5CCOCC5)c5c4OCO5)c(Oc4cnc5[nH]ccc5c4)c3)CC2)C1` [compound 160, (S)-2-((1H-pyrrolo[2,3-b]pyrid-5-yl)oxy)-4-(2-(2-(2-isopropylphenyl)pyrrolidin-1-yl)-7-azaspiro[3.5]non-7-yl)-N-((6-nitro-7-(((tetrahydro-2H-pyran-4-yl)methyl)amino)benzo[d][1,3]dioxocyclopent-4-yl)sulfonyl)benzamide], the IC50 was < 10 nM.

`CC(C)c1ccccc1[C@@H]1CCCN1C1CC2(CCN(c3ccc(C(=O)NS(=O)(=O)c4cc([N+](=O)[O-])c(NC[C@H]5COCCO5)c5c4OCO5)c(Oc4cnc5[nH]ccc5c4)c3)CC2)C1` [compound 161, N-((7-((((S)-1,4-dioxan-2-yl)methyl)amino)-6-nitrobenzo[d][1,3]dioxocyclopent-4-yl)sulfonyl)-2-((1H-pyrrolo[2,3-b]pyrid-5-yl)oxy)-4-(2-((S)-2-(2-isopropylphenyl)pyrrolidin-1-yl)-7-azaspiro[3.5]non-7-yl)benzamide]: the IC50 was < 10 nM.

For `COc1ccc(CN2CCN(C3CC4(CCN(c5ccc(C(=O)NS(=O)(=O)c6cc([N+](=O)[O-])c(NCC7(F)CCOCC7)c7c6OC(C)(C)O7)c(Oc6cnc7[nH]ccc7c6)c5)CC4)C3)[C@H](c3ccccc3C(C)C)C2)cc1` [compound 162, (R)-2-((1H-pyrrolo[2,3-b]pyrid-5-yl)oxy)-N-((7-(((4-fluorotetrahydro-2H-pyran-4-yl)methyl)amino)-2,2-dimethyl-6-nitrobenzo[d][1,3]dioxocyclopent-4-yl)sulfonyl)-4-(2-(2-(2-isopropylphenyl)-4-(4-methoxybenzyl)piperazin-1-yl)-7-azaspiro[3.5]non-7-yl)benzamide], the IC50 is < 10 nM.

Turning to `COc1ccc(CN2CCN(C3CC4(CCN(c5ccc(C(=O)NS(=O)(=O)c6cc([N+](=O)[O-])c(NC[C@H]7CC[C@](C)(O)CC7)c7c6OC(C)(C)O7)c(Oc6cnc7[nH]ccc7c6)c5)CC4)C3)[C@H](c3ccccc3C(C)C)C2)cc1` [compound 163, 2-((1H-pyrrolo[2,3-b]pyrid-5-yl)oxy)-N-((7-((((1r, 4r)-4-hydroxy-4-methylcyclohexyl)methyl)amino)-2,2-dimethyl-6-nitrobenzo[d][1,3]dioxocyclopent-4-yl)sulfonyl)-4-(2-((R)-2-(2-isopropylphenyl)-4-(4-methoxybenzyl)piperazin-1-yl)-7-azaspiro[3.5]non-7-yl)benzamide], the IC50 was < 10 nM.

Regarding `COc1ccc(CN2CCN(C3CC4(CCN(c5ccc(C(=O)NS(=O)(=O)c6cc([N+](=O)[O-])c(NCC7(F)CCOCC7)c7c6OC(F)(F)O7)c(Oc6cnc7[nH]ccc7c6)c5)CC4)C3)[C@H](c3ccccc3C(C)C)C2)cc1` [compound 164, (R)-2-((1H-pyrrolo[2,3-b]pyrid-5-yl)oxy)-N-((2,2-difluoro-7-(((4-fluorotetrahydro-2H-pyran-4-yl)methyl)amino)-6-nitrobenzo[d][1,3]dioxocyclopent-4-yl)sulfonyl)-4-(2-(2-(2-isopropylphenyl)-4-(4-methoxybenzyl)piperazin-1-yl)-7-azaspiro[3.5]non-7-yl)benzamide], the IC50 was < 10 nM.

On to `COc1ccc(CN2CCN(C3CC4(CCN(c5ccc(C(=O)NS(=O)(=O)c6cc([N+](=O)[O-])c(NC[C@H]7CC[C@](C)(O)CC7)c7c6OC(F)(F)O7)c(Oc6cnc7[nH]ccc7c6)c5)CC4)C3)[C@H](c3ccccc3C(C)C)C2)cc1` [compound 165, 2-((1H-pyrrolo[2,3-b]pyrid-5-yl)oxy)-N-((2,2-difluoro-7-((((1r, 4r)-4-hydroxy-4-methylcyclohexyl)methyl)amino)-6-nitrobenzo[d][1,3]dioxocyclopent-4-yl)sulfonyl)-4-(2-((R)-2-(2-isopropylphenyl)-4-(4-methoxybenzyl)piperazin-1-yl)-7-azaspiro[3.5]non-7-yl)benzamide], for which the IC50 was < 10 nM.

Turning to `COc1ccc(CN2CCN(C3CC4(CCN(c5ccc(C(=O)NS(=O)(=O)c6cc([N+](=O)[O-])c(NCC7(F)CCOCC7)c7c6OCO7)c(Oc6cnc7[nH]ccc7c6)c5)CC4)C3)[C@H](c3ccccc3C(C)C)C2)cn1` [compound 166, (R)-2-((1H-pyrrolo[2,3-b]pyrid-5-yl)oxy)-N-((7-(((4-fluorotetrahydro-2H-pyran-4-yl)methyl)amino)-6-nitrobenzo[d][1,3]dioxocyclopent-4-yl)sulfonyl)-4-(2-(2-(2-isopropylphenyl)-4-((6-methoxypyrid-3-yl)methyl)piperazin-1-yl)-7-azaspiro[3.5]non-7-yl)benzamide], the IC50 was < 10 nM.

In the case of `CC(C)c1ccccc1[C@@H]1CN(Cc2ccc(F)cc2)CCN1C1CC2(CCN(c3ccc(C(=O)NS(=O)(=O)c4cc([N+](=O)[O-])c(NCC5(F)CCOCC5)c5c4OCO5)c(Oc4cnc5[nH]ccc5c4)c3)CC2)C1` [compound 167, (R)-2-((1H-pyrrolo[2,3-b]pyrid-5-yl)oxy)-4-(2-(4-(4-fluorobenzyl)-2-(2-isopropylphenyl)piperazin-1-yl)-7-azaspiro[3.5]non-7-yl)-N-((7-(((4-fluorotetrahydro-2H-pyran-4-yl)methyl)amino)-6-nitrobenzo[d][1,3]dioxocyclopent-4-yl)sulfonyl)benzamide], the IC50 was < 10 nM.

Regarding `CC(C)c1ccccc1[C@@H]1CN(Cc2ccc(F)c(F)c2)CCN1C1CC2(CCN(c3ccc(C(=O)NS(=O)(=O)c4cc([N+](=O)[O-])c(NCC5(F)CCOCC5)c5c4OCO5)c(Oc4cnc5[nH]ccc5c4)c3)CC2)C1` [compound 168, (R)-2-((1H-pyrrolo[2,3-b]pyrid-5-yl)oxy)-4-(2-(4-(3,4-difluorobenzyl)-2-(2-isopropylphenyl)piperazin-1-yl)-7-azaspiro[3.5]non-7-yl)-N-((7-(((4-fluorotetrahydro-2H-pyran-4-yl)methyl)amino)-6-nitrobenzo[d][1,3]dioxocyclopent-4-yl)sulfonyl)benzamide], the IC50 is < 10 nM.

As for `CC(C)c1ccccc1[C@@H]1CN(Cc2ccc(F)cc2F)CCN1C1CC2(CCN(c3ccc(C(=O)NS(=O)(=O)c4cc([N+](=O)[O-])c(NCC5(F)CCOCC5)c5c4OCO5)c(Oc4cnc5[nH]ccc5c4)c3)CC2)C1` [compound 169, (R)-2-((1H-pyrrolo[2,3-b]pyrid-5-yl)oxy)-4-(2-(4-(2,4-difluorobenzyl)-2-(2-isopropylphenyl)piperazin-1-yl)-7-azaspiro[3.5]non-7-yl)-N-((7-(((4-fluorotetrahydro-2H-pyran-4-yl)methyl)amino)-6-nitrobenzo[d][1,3]dioxocyclopent-4-yl)sulfonyl)benzamide], the IC50 was < 10 nM.

With `CC(C)c1ccccc1[C@@H]1CN(Cc2c(F)cccc2F)CCN1C1CC2(CCN(c3ccc(C(=O)NS(=O)(=O)c4cc([N+](=O)[O-])c(NCC5(F)CCOCC5)c5c4OCO5)c(Oc4cnc5[nH]ccc5c4)c3)CC2)C1` [compound 170, (R)-2-((1H-pyrrolo[2,3-b]pyrid-5-yl)oxy)-4-(2-(4-(2,6-difluorobenzyl)-2-(2-isopropylphenyl)piperazin-1-yl)-7-azaspiro[3.5]non-7-yl)-N-((7-(((4-fluorotetrahydro-2H-pyran-4-yl)methyl)amino)-6-nitrobenzo[d][1,3]dioxocyclopent-4-yl)sulfonyl)benzamide], the concentration for half-maximal inhibition (IC50) is < 10 nM.

Values taken from patent US20250034135A1, “ANTI-APOPTOTIC PROTEIN BCL-2 INHIBITOR, PHARMACEUTICAL COMPOSITION AND USES THEREOF” (HANGZHOU HEALZEN THERAPEUTICS CO., LTD., priority 2021, published 2025).
